What was measured:
[1] = target: T1, NPFFR1-chimera (Q37^NtL/I293^6.58S/T307^7.31N) (Homo sapiens, UniProt Q9GZQ6, I293S/Q37L/T307N); test: GloSensor forskolin-stimulated cAMP assay, NPFFR1 triple mutant (chimera Q37NtL/I2936.58S/T3077.31N); type: cell-based; conditions: HEK293T, 0.5 μM forskolin, three independent experiments
T1 construct: expressed in transfected cells; host or cells: HEK293T
Experimental: Figure 4 RF-amide ligand selectivity of NPFFR2 and NPFFR1. (A) Sequence alignment between human NPFFs and RFRPs, the endogenous ligands of NPFFRs, which share PXRF-NH2 motif at their C-terminus (shown in green letters). Key residues at the fifth and sixth positions from the C-terminus, are highlighted in bold. […] (B) The concentration-dependent response of various agonists on NPFFR1 was measured using a forskolin-stimulated cAMP assay. Data points represent the mean values from three independent experiments (each with technical triplicate), with error bars indicating SEM. Raw data were normalized to the vehicle-treated (0%) and 0.5 μM forskolin-treated (100%) responses. (C) Structural comparison between the binding modes of hNPSF to NPFFR2 and GnIH to NPFFR1. An AlphaFold2 prediction model of the GnIH–NPFFR1 complex was generated using the hNPSF–NPFFR2 complex structure as a template. The hydrophobicity of NPFFRs is shown with surface representation, where purple indicates hydrophilic regions and bronze indicates hydrophobic regions. […] (D) The cAMP response to the ligands hNPSF and GnIH was measured for both wild-type NPFFR1 and a mutant form of NPFFR1 using a forskolin-stimulated cAMP assay. […] Symbols represent mean values from three independent experiments, each conducted in technical triplicates, with error bars indicating SEM. Responses were normalized to vehicle-treated controls (0%) and 0.5 μM forskolin-treated controls (100%). Source data are available online for this figure.
To further validate whether these specific residues in NPFFR1 affect ligand selectivity, we generated a triple mutant of NPFFR1, in which residues Q37^Nt, I293^6.58, and T307^7.31 of NPFFR1 were replaced by the corresponding NPFFR2 residues, Leu, Ser, and Asn, respectively (Appendix Fig. S10). […]
HEK293T cells were seeded at a density of 6 × 10^5 cells per well in a six-well cell culture plate (SPL) and co-transfected with expression plasmids encoding GloSensor™ and each NPFFR construct, using 1 µg to 4 µg of DNA per well according to the Lipofectamine™ 2000 Transfection Reagent (Invitrogen) protocol. […] Luminescence signals were measured using a Mithras LB940 instrument (Berthold) with a measurement time of 1 s per well.
Data from the GloSensor^TM cAMP signaling assays were analyzed using GraphPad Prism with a three-parameter logistic model to fit concentration-response curves for both wild-type (WT) and mutant receptors. Mutant expression levels and DNA amounts were adjusted to match WT conditions. ΔpEC50 values were calculated by subtracting the log EC50 of the WT receptor from that of each mutant. […] Statistical significance was assessed using one-way ANOVA, followed by Dunnett’s tests comparisons to the WT receptor. […]

[2] = target: T2, human NPFFR2 (Homo sapiens, UniProt Q9Y5X5); test: GloSensor forskolin-stimulated cAMP assay, NPFFR2 wild-type; type: cell-based; conditions: HEK293T, 0.5 μM forskolin; for Emax: HEK-293T
T2 construct: expressed in transfected cells; host or cells: HEK293T (pcDNA3.1 NPFFR2)
Experimental: Figure 1 Structural analysis and downstream signaling of NPFFR2. (A) The concentration-dependent response of various agonists on NPFFR2 is measured using a forskolin-stimulated cAMP assay. Data points represent mean values from three independent experiments (each with technical triplicate), with error bars indicating SEM (standard error of the mean). Raw data were normalized to the vehicle-treated (0%) and 0.5 μM forskolin-treated (100%) responses. […] (C) The extracellular loop 2 (ECL2, pink) and N-terminus (Nt, blue) of NPFFR2 are depicted using a cartoon model. […] Source data are available online for this figure.
HEK293T cells were seeded at a density of 6 × 10^5 cells per well in a six-well cell culture plate (SPL) and co-transfected with expression plasmids encoding GloSensor™ and each NPFFR construct, using 1 µg to 4 µg of DNA per well according to the Lipofectamine™ 2000 Transfection Reagent (Invitrogen) protocol. After 48 h of incubation under standard conditions (37 °C, 5% CO2), the cells were detached using Accutase solution (Sigma-Aldrich) and washed with PBS. The cells were then pelleted by centrifugation, resuspended in CO2-independent medium (Gibco) supplemented with Firefly D-Luciferin (0.5 mg/ml, NanoLight), and distributed into a 96-well white plate (SPL). After a 2-hour incubation, serially diluted ligands and 0.5 μM forskolin were added to each well to detect ligand-induced signaling. Luminescence signals were measured using a Mithras LB940 instrument (Berthold) with a measurement time of 1 s per well.
Data from the GloSensor^TM cAMP signaling assays were analyzed using GraphPad Prism with a three-parameter logistic model to fit concentration-response curves for both wild-type (WT) and mutant receptors. Mutant expression levels and DNA amounts were adjusted to match WT conditions. ΔpEC50 values were calculated by subtracting the log EC50 of the WT receptor from that of each mutant. Results are presented as mean ± SEM from three independent biological replicates, each performed in duplicate or more. Error bars represent the SEM. Statistical significance was assessed using one-way ANOVA, followed by Dunnett’s tests comparisons to the WT receptor. Significance levels were reported as follows: ns (not significant, P > 0.05); *P < 0.05; **P < 0.01; ***P < 0.001.

[3] = NPFFR2 wild type (50% DNA treated), three independent experiments

T2 sequence (Q9Y5X5 103-522): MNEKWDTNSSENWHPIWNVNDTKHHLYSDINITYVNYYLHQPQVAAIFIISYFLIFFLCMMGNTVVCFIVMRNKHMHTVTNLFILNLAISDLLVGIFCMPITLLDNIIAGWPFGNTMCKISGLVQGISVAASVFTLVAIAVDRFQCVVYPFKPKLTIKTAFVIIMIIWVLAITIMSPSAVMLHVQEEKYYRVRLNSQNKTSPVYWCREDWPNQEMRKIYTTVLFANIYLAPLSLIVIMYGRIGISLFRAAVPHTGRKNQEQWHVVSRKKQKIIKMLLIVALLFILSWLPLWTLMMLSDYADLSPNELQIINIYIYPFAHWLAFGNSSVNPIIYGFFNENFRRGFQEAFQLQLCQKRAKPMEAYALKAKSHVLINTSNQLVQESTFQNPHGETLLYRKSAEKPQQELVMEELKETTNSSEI
T1 sequence (Q9GZQ6 whole entry Q37L/I293S/T307N): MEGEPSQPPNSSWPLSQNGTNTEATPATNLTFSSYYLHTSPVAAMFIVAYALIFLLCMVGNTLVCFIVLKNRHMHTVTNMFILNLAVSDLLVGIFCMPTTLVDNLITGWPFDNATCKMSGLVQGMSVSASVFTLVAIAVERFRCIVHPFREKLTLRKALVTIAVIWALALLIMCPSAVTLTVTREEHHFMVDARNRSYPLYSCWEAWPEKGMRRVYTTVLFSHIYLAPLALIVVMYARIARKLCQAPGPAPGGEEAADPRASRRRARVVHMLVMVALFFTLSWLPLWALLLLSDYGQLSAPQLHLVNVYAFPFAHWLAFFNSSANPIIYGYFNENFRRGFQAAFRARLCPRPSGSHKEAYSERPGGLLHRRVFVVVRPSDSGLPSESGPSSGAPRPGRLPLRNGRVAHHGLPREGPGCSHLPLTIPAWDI

EC50 [1]: 31.6 nM | Emax ([1]; HEK-293T): 78 ± 2% | Emax [2, 3]: 56 ± 2% | Emax ([2]; NPFFR2 wild-type (100% DNA treated for hNPSF), mean of three independent experiments ± SEM): 77 ± 3% | EC50 [2, 3]: 6.31 nM | EC50 ([2]; NPFFR2 wild-type (100% DNA treated for hNPSF), three independent experiments): 3.16 nM
SMILES: CC(C)C[C@H](NC(=O)[C@H](Cc1ccccc1)NC(=O)[C@H](C)NC(=O)[C@H](CCC(N)=O)NC(=O)[C@@H](N)CO)C(=O)N[C@@H](Cc1ccccc1)C(=O)N[C@@H](CCC(N)=O)C(=O)N1CCC[C@H]1C(=O)N[C@@H](CCC(N)=O)C(=O)N[C@@H](CCCNC(=N)N)C(=O)N[C@@H](Cc1ccccc1)C(N)=O [hNPSF]
